# How the values were obtained:
# [1] = Compound A loading onto CalliSpheres microspheres (residual concentration by HPLC); format: physicochemical; details: for Concentration of Residual: 1 g microspheres 100-300 μm, 2 mg in 4 ml NaOAc/HOAc buffer 100 mM pH5.0; for Amount of Compound Loaded: onto 1 g microspheres
# Description: Microspheres (1 g, 100-300 μm, CalliSpheres® CallisynBiomedical, Inc.) were immersed into Compound A solution (2 mg in 4 ml of NaOAc/HOAc buffer (100 mM, pH5.0)) using a 10 mL disposable syringe. Residual compound concentration remaining in the depleted loading solution over time was determined by HPLC method.
# (§1) HPLC was performed using the following instrument and/or conditions: […]
# [2] = target: Na+/K+-ATPase; assay: Na+/K+-ATPase inhibition; format: biochemical; details: read-out: IC50 against Na+/K+-ATPase
# [3] = Elution of Compound A from loaded microspheres using the T-Apparatus; format: physicochemical; details: 50 mL PBS pH 7.4, 25° C.
# Description: The microspheres loaded with Compound A were eluted into 50 mL of phosphate buffer solution (PBS, pH 7.4) at 25° C. using a T-Apparatus (Lewis A L, Gonzalez M V, Lloyd A W, et al. DC bead: in vitro characterization of a drug-delivery device for transarterial chemoembolization. J Vasc Interv Radiol, 2006, 17: 335-42). The concentration of Compound A was determined using HPLC method.
# as §1
smiles,measurement,setting,value
"C[C@]12CC[C@H](OC(=O)N3CCNCC3)C[C@H]1CC[C@@H]1[C@@H]2CC[C@]2(C)[C@@H](c3ccc(=O)oc3)CC[C@]12O [Compound A, (3S,5R,8R,9S,10S,13R,14S,17R)-14-hydroxy-10,13-dimethyl-17-(2-oxo-2H-pyran-5-yl)hexadecahydro-1H-cyclopenta[α]phenanthren-3-yl piperazine-1-carboxylate]",Concentration of Residual,[1]; time 0 h,458000 ng/mL
same,Amount of Compound Loaded,[1]; time 0 h,0 mg
same,Concentration of Residual,[1]; time 0.25 h,91000 ng/mL
same,Amount of Compound Loaded,[1]; time 0.25 h,1.47 mg
same,Concentration of Residual,[1]; time 0.5 h,81000 ng/mL
same,Amount of Compound Loaded,[1]; time 0.5 h,1.51 mg
same,Concentration of Residual,[1]; time 0.75 h,83000 ng/mL
same,Amount of Compound Loaded,[1]; time 0.75 h,1.50 mg
same,Concentration of Residual,[1]; time 1 h,60000 ng/mL
same,Amount of Compound Loaded,[1]; time 1 h,1.59 mg
same,IC50,[2],~20 nM
same,Amount of Compound Eluted,[3]; time 0.083 h,0.63 mg
same,Concentration of Compound Eluted,[3]; time 0.083 h,13000 ng/mL
same,Amount of Compound Eluted,[3]; time 0.5 h,0.67 mg
same,Concentration of Compound Eluted,[3]; time 0.5 h,14000 ng/mL
same,Amount of Compound Eluted,[3]; time 0.75 h,0.70 mg
same,Concentration of Compound Eluted,[3]; time 0.75 h,14000 ng/mL
same,Amount of Compound Eluted,[3]; time 1 h,0.70 mg
same,Concentration of Compound Eluted,[3]; time 1 h,14000 ng/mL
same,Amount of Compound Eluted,[3]; time 2 h,0.76 mg
same,Concentration of Compound Eluted,[3]; time 2 h,15000 ng/mL
same,Amount of Compound Eluted,[3]; time 4 h,0.94 mg
same,Concentration of Compound Eluted,[3]; time 4 h,19000 ng/mL
same,Amount of Compound Eluted,[3]; time 6 h,1.10 mg
same,Concentration of Compound Eluted,[3]; time 6 h,22000 ng/mL
same,Amount of Compound Eluted,[3]; time 24 h,1.21 mg
same,Concentration of Compound Eluted,[3]; time 24 h,24000 ng/mL
